In patent US20250145608A1, “KRAS DEGRADING COMPOUNDS COMPRISING ANNULATED 2-AMINO-3-CYANO THIOPHENES” (Boehringer Ingelheim Int'l GmbH Corp., priority 2021, published 2025):
Read-outs that look alike come from different tables or passages of the source.

Key:
Assay type in all cases: cell-based
KRAS(G12D) = biological target: T1, KRAS(G12D) (Homo sapiens, UniProt P01116, G12D); experiment: HiBit degradation assay in GP5d-HiBit-KRAS(G12D) cells (18 h; DC50, Dmax)
T1 construct: introduced immediately downstream of the initiating Methionine codon of the endogenous KRAS locus; host or cells: GP5d-HiBit-KRAS(G12D), a CRISPR knock-in at the endogenous locus
Method: A HiBit protein detection tag (amino acid sequence […], Seq ID No 1) was introduced immediately downstream of the initiating Methionine codon of the endogenous KRAS locus (Ensembl gene ID ENSG00000133703.7) of GP5d cells (ECACC Cat. No. 95090715) by CRISPR-based genome engineering using a KRAS(G12D) mutant donor construct encoding the HiBit tag. […] Correct modification of the KRAS locus was assessed by PCR-based genotyping and Sanger sequencing of the isolated PCR products. The resulting cell line is referred to as GP5d-HiBit-KRAS(G12D).
To assess PROTAC-mediated degradation of KRAS(G12D), GP5d-HiBit-KRAS(G12D) cells were seeded at 25000 cells per well in 100 μL Dulbecco's Modified Eagle medium (Sigma cat. no. D6429) supplemented with 10% fetal calf serum into white bottom opaque 96 well plates (Perkin Elmer cat no. 5680). Plates were incubated at 37° C., 5% CO2 in a humidified incubator over night to allow the cells to adhere. […] Plates were further incubated at 37° C. for 18 hours. Following incubation, 100 μL per well Promega Nano-Glo HiBit lytic detection reagent mix (Promega Nano-Glo HiBit Lytic Detection System #N3050), prepared according to the manufacturer's instructions in the kit, were added. To allow for adequate cell lysis, plates were incubated on an orbital shaker for 15 min and further incubated 30 min at room temperature. Upon completion of cell lysis, luminescence was measured using an Envision plate reader using the Ultrasensitive Luminescence Protocol for 96 well plates. Luminescence levels were normalized by the values obtained with DMSO-treated samples and plotted as percent of DMSO control. DC50 values were computed using a four parametric logistic model. Dmax values represent the maximal extent of degradation observed and is stated as percent of control (% Ctrl.) treatments. DC50 and Dmax are reported in Table 64 for representative compounds of the invention.

NCI-H358 cells = experiment: NCI-H358 CTG proliferation assay (120 h) (NSCLC, G12C); conditions: Homo sapiens
Method: NCI-H358 CTG Proliferation Assay (120 h) (NSCLC, G12C)
NCI-H358 cells (ATCC No. CRL-5807) are dispensed into white bottom opaque 96 well plates (Perkin Elmer cat no. 5680) at a density of 2000 cells per well in 100 μL RPMI-1640 ATCC-Formulation (Gibco #A10491)+10% FCS (fetal calf serum) (assay 1) or into black 384-well plates, flat and clear bottom (Greiner, PNr. 781091) at a density of 200 cells per well in 60 μl RPMI-1640 ATCC-Formulation (Gibco #A10491)+10% FCS (fetal calf serum) (assay 2). […] Compounds (10 mM stock in DMSO) are added at logarithmic dose series using the HP Digital Dispenser D300 (Tecan) (assay 1) or the ECHO acoustic liquid handler system (Beckman Coulter) (assay 2), normalizing for added DMSO and including DMSO controls. For the TO time point measurement, untreated cells are analyzed at the time of compound addition. Plates are incubated for 120 h, and cell viability is measured using CellTiter-Glo luminescent cell viability reagent (Promega product code G7570). Viability (stated as percent of control) is defined as relative luminescence units RLU of each well divided by the RLU of cells in DMSO controls. IC50 values are determined from viability measurements by non-linear regression using a four parameter model.

AsPC-1 cells = experiment: AsPC-1 CTG proliferation assay (120 h) (pancreatic cancer, G12D); conditions: Homo sapiens, ASPC1, AsPC-1 proliferation
Method: AsPC-1 CTG Proliferation Assay (120 h) (Pancreatic Cancer, G12D)
The CTG assay is designed to measure quantitatively the proliferation of AsPC-1 cells (ATCC […]), using the CellTiter Glow Assay Kit (Promega G7571). Cells are grown in RPMI medium (ATCC) supplemented with Fetal Calf Serum (Life Technologies, Gibco BRL, Cat. No. 10270-106). On “day 0” 2000 AsPC-1 cells are seeded in 60 μL RPMI ATCC+10% FCS+ Penstrep in a 384-well plate, flat and clear bottom (Greiner, PNr. 781091). Cells are then incubated in the plates at 37° C. in a CO2 incubator overnight. On day 1, compounds (10 mM stock in DMSO) are added with the ECHO acoustic liquid handler system (Beckman Coulter), including DMSO controls. Plates are incubated for 120 h, and cell viability is measured using CellTiter-Glo luminescent cell viability reagent (Promega product code G7570). Viability (stated as percent of control) is defined as relative luminescence units RLU of each well divided by the RLU of cells in DMSO controls. IC50 values are determined from viability measurements by non-linear regression using a four-parameter model.

SAS cells = experiment: SAS CTG proliferation assay (120 h) (HNSCC, wt amplified)
Method: SAS CTG Proliferation Assay (120 h) (HNSCC, Wt Amplified)
(§1) SAS cells (JCRB0260) are dispensed into 384-well plates, flat and clear bottom (Greiner, PNr. 781091) at a density of 300 cells per well in 60 μL DMEM:F12 (Gibco 31330-038)+10% Fetal Calf Serum (HyClone, PNr.: SH30084.03) and incubated at 37° C. in a CO2 incubator overnight. The next day, compounds (10 mM stock in DMSO) are added with the ECHO acoustic liquid handler system (Beckman Coulter), including DMSO controls. Plates are incubated for 120 h, and cell viability is measured using CellTiter-Glo luminescent cell viability reagent (Promega product code G7570). Viability (stated as percent of control) is defined as relative luminescence units RLU of each well divided by the RLU of cells in DMSO controls. IC50 values are determined from viability measurements by non-linear regression using a four-parameter model.

SK—CO-1 cells = experiment: SK-CO-1 CTG proliferation assay (120 h) (CRC, G12V); conditions: Homo sapiens, SK-CO-1 proliferation
Method: SK—CO-1 CTG Proliferation Assay (120 h) (CRC, G12V)
as §1, with “SK—CO-1 cells (ATCC” for “SAS cells (JCRB0260)”, “SK—CO-1 cells (ATCC HTB-39) are dispensed” for “SAS cells (JCRB0260) are dispensed”, “density of 500 cells per” for “density of 300 cells per”, “60 μL EMEM (Sigma M5650)+10% Fetal Calf” for “60 μL DMEM:F12 (Gibco 31330-038)+10% Fetal Calf”

GP5d cells = experiment: GP5d cell proliferation assay (colorectal cancer, G12D), 5 days; conditions: Homo sapiens, 120 h
Method: GP5d Cell Proliferation Assay (Colorectal Cancer, G12D)
(§2) GP5d cells (ECACC 95090715) are dispensed into white bottom opaque 96 well plates at a density of 5000 cells per well in 100 μL DMEM (BioWhittaker, Cat #BE12-605F) supplemented with 10% FCS. […] Compounds (10 mM stock in DMSO) are added at logarithmic dose series using the HP Digital Dispenser D300 (Tecan), normalizing for added DMSO. For the TO time point measurement, untreated cells are analysed at the time of compound addition. Plates are incubated for 5 days, and cell viability is measured using CellTiter-Glo luminescent cell viability reagent (Promega, Cat. No G7570). Viability (stated as percent of control) is defined as relative luminescence units RLU of each well divided by the RLU of cells in DMSO controls. IC50 values were computed from relative viability values using a four parametric logistic model.

SW620 cells = experiment: SW620 cell proliferation assay (colorectal cancer, G12V), 5 days; conditions: Homo sapiens, SW-620, 120 h
Method: SW620 Cell Proliferation Assay (Colorectal Cancer, G12V)
as §2, with “SW620” for “GP5d”, “(ATCC CCL-227)” for “(ECACC 95090715)”, “plates (Perkin Elmer cat no. 5680)” for “plates”, “2000” for “5000”

[1] = assay 2, read-out: H358 (assay 2) IC50
[2] = assay 1, read-out: H358 (assay 1) IC50

T1 sequence (P01116 1-188 isoform P01116-2 G12D): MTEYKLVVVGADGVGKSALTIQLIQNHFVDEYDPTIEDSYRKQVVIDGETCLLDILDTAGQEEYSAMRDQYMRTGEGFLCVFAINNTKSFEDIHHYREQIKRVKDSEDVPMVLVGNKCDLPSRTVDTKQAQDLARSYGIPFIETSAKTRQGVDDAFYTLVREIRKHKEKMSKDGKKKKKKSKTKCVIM

Compound | DC50 (KRAS(G12D)) | Dmax 18 h (KRAS(G12D)) | IC50 (NCI-H358 cells; [1]) | IC50 (AsPC-1 cells) | IC50 (SAS cells) | IC50 (SK—CO-1 cells) | IC50 (NCI-H358 cells; [2]) | IC50 (GP5d cells) | IC50 (SW620 cells)
Cc1ncsc1-c1ccc(CNC(=O)[C@@H]2C[C@@H](O)CN2C(=O)C(c2cc(OCCCCN3CCCN(c4nccc(-c5cc([C@@]6(C)CCCc7sc(N)c(C#N)c76)no5)n4)[C@@H](C)C3)no2)C(C)C)cc1 (stereo partly shown) [I-6] | 8.9 nM | 92 % Ctrl | 253 nM | 645 nM | 17000 nM | 1210 nM | – | – | –
Cc1ncsc1-c1ccc(CNC(=O)[C@@H]2C[C@@H](O)CN2C(=O)C(c2cc(OCCCCN3CCN(c4nccc(-c5noc([C@@]6(C)CCCc7sc(N)c(C#N)c76)n5)n4)[C@@H](C)C3)no2)C(C)C)cc1 (stereo partly shown) [I-11] | 35.1 nM | 57 % Ctrl | 349 nM | – | – | – | 712 nM | ≥ 9000 nM | 9000 nM
Cc1ncsc1-c1ccc(CNC(=O)[C@@H]2C[C@@H](O)CN2C(=O)C(c2cc(OCCCCN3CCCN(c4nccc(-c5noc([C@@]6(C)CCCc7sc(N)c(C#N)c76)n5)n4)[C@@H](C)C3)no2)C(C)C)cc1F (stereo partly shown) [I-5] | 6.5 nM | 92 % Ctrl | 58.4 nM | – | – | – | 117 nM | 13.8 nM | 47.9 nM
Cc1ncsc1-c1ccc(CNC(=O)[C@@H]2C[C@@H](O)CN2C(=O)C(c2cc(OCCCCCCN3CCCN(c4nccc(-c5noc([C@@]6(C)CCCc7sc(N)c(C#N)c76)n5)n4)[C@@H](C)C3)no2)C(C)C)cc1 (stereo partly shown) [I-8] | 11.4 nM | 86 % Ctrl | 136 nM | – | – | – | 725 nM | 90.2 nM | 50.4 nM
Cc1cc(CNC(=O)[C@@H]2C[C@@H](O)CN2C(=O)C(c2cc(OCCCCN3CCCN(c4nccc(-c5noc([C@@]6(C)CCCc7sc(N)c(C#N)c76)n5)n4)[C@@H](C)C3)no2)C(C)C)c(F)cc1-c1scnc1C (stereo partly shown) [I-13] | 45.2 nM | 87 % Ctrl | 336 nM | – | – | – | 468 nM | 131 nM | 206 nM
Cc1cc(CNC(=O)[C@@H]2C[C@@H](O)CN2C(=O)C(c2cc(OCCCCN3CCCN(c4nccc(-c5noc([C@@]6(C)CCCc7sc(N)c(C#N)c76)n5)n4)[C@@H](C)C3)no2)C(C)C)ccc1-c1scnc1C (stereo partly shown) [I-10] | 15.4 nM | 91 % Ctrl | 203 nM | – | – | – | 265 nM | 39.3 nM | 115 nM
Cc1ncsc1-c1ccc(CNC(=O)[C@@H]2C[C@@H](O)CN2C(=O)C(c2cc(OCCN3CCCN(c4nccc(-c5noc([C@@]6(C)CCCc7sc(N)c(C#N)c76)n5)n4)[C@@H](C)C3)no2)C(C)C)cc1 (stereo partly shown) [I-2] | 263 nM | 84 % Ctrl | – | – | – | – | 2930 nM | ≥ 9000 nM | 598 nM
CC(C)C(C(=O)N1C[C@H](O)C[C@H]1C(=O)NCc1ccc(-n2ccnc2)cc1)c1cc(OCCCCN2CCCN(c3nccc(-c4noc([C@@]5(C)CCCc6sc(N)c(C#N)c65)n4)n3)[C@@H](C)C2)no1 (stereo partly shown) [I-19] | 6.7 nM | 93 % Ctrl | – | – | – | – | 346 nM | 23.5 nM | 29 nM
Cc1ncsc1-c1ccc(CNC(=O)[C@@H]2C[C@@H](O)CN2C(=O)C(c2cc(OCCCCN3CCCN(c4nccc(-c5cc([C@@]6(C)CCCc7sc(N)c(C#N)c76)sn5)n4)[C@@H](C)C3)no2)C(C)C)cc1 (stereo partly shown) [I-12] | 42.1 nM | 86 % Ctrl | 118 nM | – | – | – | 407 nM | 106 nM | 109 nM
